From patent publication US8889192B2, “Magnetic nanomedicine for inhibiting/treating human prostate cancer” (priority 2011, dated 2014) come the findings set out here.

The structures appear in SMILES notation.

The test system of series [1] is human prostate cancer cells PC3. The series is described as follows: Growth of PC3 cells, XTT cell counting. It is filed as cell-based. Conditions: 10 μM, 48 hours, no magnetic field. As to the method:
Cell cultivation: Place 150 μL of a mixture liquid containing 10000 human prostate cancer cells PC3 into every well of a 96-well culture plate. […] Agent addition: 24 hours later, separately mix […] magnetic nanocomposite (600 μg/mL), Taxol, and […]/Taxol magnetic nanomedicine with a RPMI1640 medium to form mixed solutions. […] Cell counting: […]
A general note: Formazan colour is commonly taken as a measure of viable cells.

The test system of series [2] is human prostate cancer cells CWR22R. The series is described as follows: Growth of CWR22R cells, XTT cell counting. It is filed as cell-based. Conditions: 10 μM, 48 hours, no magnetic field. As for the experimental part:
Cell cultivation: Place 150 μL of a mixture liquid containing 10000 human prostate cancer cells CW[…] into every well of a 96-well culture plate. […] Agent addition: 24 hours later, separately mix […] magnetic nanocomposite (600 μg/mL), Taxol, and […]/Taxol magnetic nanomedicine with a RPMI1640 medium to form mixed solutions. […] Cell counting: Remove RPMI1640 and add 120 μL of an XTT reaction liquid to the wells.

The test system of series [3] is tubulin protein.
For another series, the system named is α-tubulin. The series is described as follows: Content of α-tubulin in CWR22R cells, Western method. The following applies: 10 μM, 24 hours, no magnetic field.
Series [4] deals with tubulin protein. The series is described as follows: Stability analysis: residual activity by tubulin protein assay after storage. Conditions: stored at 25° C. for 14 days.

As for `CC(=O)O[C@H]1C(=O)[C@@]2(C)[C@H]([C@H](OC(=O)c3ccccc3)[C@]3(O)C[C@H](OC(=O)[C@H](O)[C@@H](NC(=O)c4ccccc4)c4ccccc4)C(C)=C1C3(C)C)[C@]1(OC(C)=O)CO[C@@H]1C[C@@H]2O` [Taxol], the PC3 growth-inhibition ratio in series [1] is given as 25%. In addition, the CWR22R growth-inhibition ratio in series [2] is 41%. The same compound showed a half life in the series with tubulin protein [3] of 32 h. Besides, in “physchem”, the half-life (commonly the time in which the quantity being followed falls by half) was 19 h. Moreover, the α-tubulin inhibition ratio with α-tubulin stood at 52%. The activity after storage result with tubulin protein [4] is recorded as “has lost its activity”.
